Consider 2 compounds from EP4450494A1, “INDOLE DERIVATIVES AS HISTONE DEACETYLASE (HDAC) INHIBITORS FOR THE TREATMENT OF CANCER” (Consejo Superior De Investigaciones Científicas, priority 2023, dated 2024).

Molecules are shown by their SMILES.

What all share (assay type): cell-based
The target of assay [1] is T1, HDAC6 (Homo sapiens, UniProt Q9UBN7).
T1 construct: endogenous in cells; host or cells: U87 glioblastoma cell line
T1 sequence (Q9UBN7 1-1215): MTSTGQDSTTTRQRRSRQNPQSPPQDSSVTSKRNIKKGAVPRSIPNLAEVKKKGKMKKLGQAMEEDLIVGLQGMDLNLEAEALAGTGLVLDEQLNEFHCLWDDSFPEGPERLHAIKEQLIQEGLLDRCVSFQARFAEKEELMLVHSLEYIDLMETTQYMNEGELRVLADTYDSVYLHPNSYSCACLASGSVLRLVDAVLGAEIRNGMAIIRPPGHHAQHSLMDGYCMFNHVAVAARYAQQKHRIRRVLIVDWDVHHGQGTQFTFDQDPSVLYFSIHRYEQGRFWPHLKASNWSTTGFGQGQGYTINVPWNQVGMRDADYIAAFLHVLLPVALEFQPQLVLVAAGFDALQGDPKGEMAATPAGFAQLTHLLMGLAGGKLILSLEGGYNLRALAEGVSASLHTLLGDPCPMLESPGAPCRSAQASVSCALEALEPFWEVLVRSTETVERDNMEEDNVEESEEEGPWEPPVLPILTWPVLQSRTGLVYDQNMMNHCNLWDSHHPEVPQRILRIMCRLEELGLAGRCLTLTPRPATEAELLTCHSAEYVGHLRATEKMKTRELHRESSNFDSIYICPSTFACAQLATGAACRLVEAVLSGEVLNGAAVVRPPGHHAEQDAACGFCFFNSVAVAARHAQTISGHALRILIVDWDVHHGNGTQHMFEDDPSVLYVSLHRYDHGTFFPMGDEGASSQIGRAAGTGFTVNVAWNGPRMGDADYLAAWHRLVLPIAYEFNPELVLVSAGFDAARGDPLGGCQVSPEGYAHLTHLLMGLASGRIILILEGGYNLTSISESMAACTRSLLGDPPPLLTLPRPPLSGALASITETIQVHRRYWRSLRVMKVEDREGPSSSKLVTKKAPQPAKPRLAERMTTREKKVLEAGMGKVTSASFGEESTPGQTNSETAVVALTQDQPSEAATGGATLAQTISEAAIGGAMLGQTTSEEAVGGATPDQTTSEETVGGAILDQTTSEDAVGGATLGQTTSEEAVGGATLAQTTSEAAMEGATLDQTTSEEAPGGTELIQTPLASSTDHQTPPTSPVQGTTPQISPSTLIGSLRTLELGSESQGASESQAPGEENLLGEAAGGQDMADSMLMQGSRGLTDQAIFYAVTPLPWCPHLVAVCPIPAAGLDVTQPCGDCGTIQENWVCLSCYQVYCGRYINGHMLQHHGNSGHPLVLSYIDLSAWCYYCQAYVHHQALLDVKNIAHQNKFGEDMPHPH
The assay can be described thus: Western blot of HDAC6 and acetylated α-tubulin in treated U87 cells. The following applies: 48 h, effect higher with increasing concentrations. The procedure:
Basing on the IC50 values, DDI199, MTP142, MTP156, MTP150, FRB44 and FRB56 were selected for further studies, as they seem to be the most promising compounds (see figure 1). Thus, the capacity of these compounds as HDAC inhibitors was tested. […] For this, specific antibodies against HDAC6 and HDAC1, and acetylated α-tubulin and acetylated histone H3 were used, and β-actin was included as control. Secondary antibodies were horseradish peroxidase (HRP)-linked anti-rabbit and anti-mouse and detection was performed by chemiluminiscence with NOVEX ECL Chemi Substrate.
(A western blot detects proteins with antibodies after separation by electrophoresis.)

Assay [2] has as its system GNS179. In words: MTT cell viability assay in GNS179. Particulars: GNS179 (patient-derived); MTT assay after 72 h of treatment. Here is the method:
(§1) As a first screening, dose-response assays were done in U87 glioblastoma cell line in order to obtain the IC50 values of the different compounds. Cells were seeded at a density of 1.500 cells/well in 96-well plates, incubated overnight and treated with increasing concentrations of the corresponding compounds. After 72 h of treatment, cell viability was determined by MTT assay. For this, MTT was added to the wells and cells were incubated for 3,5 h at 37 °C and 5% CO2. Then, media was removed and DMSO was added to resuspend the formed crystals. Absorbance at 570 nm was measured using a spectrophotometer, and GraphPad Prism software was used to analyze the results and calculate the IC50 values.
(§2) With this aim, additional MTT assays were carried out following the same protocol in other glioblastoma conventional (U251) and patient-derived (GNS179) cell lines. […]
For orientation: Formazan colour is commonly taken as a measure of viable cells.

Assay [3] deals with U251. In words: MTT cell viability assay in U251. The following applies: Homo sapiens, U-251, MTT assay after 72 h of treatment. Here is the method: as §1, §2
The test system of assay [4] is conventional (U251) and patient-derived (GNS166 and GNS179) cell lines. In words: Immunofluorescence for phosphohistone H3 (proliferation) in additional glioblastoma cell lines. Particulars: dose-dependent. Here is the method:
(§3) For this, U87 cells were incubated for 48 h with increasing concentrations of the compounds. After that, cells were incubated with phosphohistone H3 or caspase-3 antibodies for the study of proliferation or apoptosis, respectively. Alexa Fluor 555 IgG anti-mouse and anti-rabbit secondary antibodies were used, and nuclear DNA was stained with DAPI. Pictures were taken with an Eclipse 80i microscope.
(§4) Furthermore, immunofluorescence assays for DDI199 were completed in additional conventional (U251) and patient-derived (GNS166 and GNS179) cell lines.

Assay [5] shares this test system. The assay can be described thus: Immunofluorescence for caspase-3 (apoptosis) in additional glioblastoma cell lines. The following applies: dose-dependent. The procedure:
as §3, §4

The subject of assay [6] is U87 glioblastoma cell line. The assay can be described thus: MTT cell viability dose-response assay in U87. Particulars: MTT assay after 72 h of treatment. The procedure:
as §1

A word on the IC50: it is the concentration at which inhibition is half-maximal.

`COc1ccc2c(ccn2S(=O)(=O)c2cccc(/C=C/C(=O)NO)c2)c1` [MTP142, (E)-N-Hydroxy-3-(3-((5-methoxy-1H-indol-1-yl)sulfonyl)phenyl)acrylamide]: the HDAC6 inhibitory capacity result in assay [1] is reported as “inhibits HDAC6, although this effect is much slighter than that for DDI199”.

As to `C#CCN(Cc1cc2cc(OCCCN3CCCCC3)ccc2n1S(=O)(=O)c1ccccc1)C(=O)CCCCCCC(=O)NO` [DDI199, N1-Hydroxy-N8-((1-(phenylsulfonyl)-5-(3-(piperidin-1-yl)propoxy)-1H-indol-2-yl)methyl)-N8-(prop-2-yn-1-yl)octanediamide], the HDAC6 inhibitory capacity entry in assay [1] is recorded as “high HDAC6 inhibitory capacity”. In addition, the half-maximal inhibitory concentration (IC50) is 4.33 µM in assay [2], 5.45 µM in assay [3] and 3.23 µM in assay [6]. The “cell proliferation (PH3 positive cells)” value in assay [4] is “significantly reduces cell proliferation”. The “apoptosis (caspase-3 positive cells)” value in assay [5] is given as “induces apoptosis”.
